Assay results from patent publication EP0443560A2, “HIV protease inhibitors” (priority 1990, dated 1991).

The molecules below were run against T1, HIV protease (Human immunodeficiency virus type 1 group M subtype B, UniProt P04585) (assay: Recombinant HIV Protease HPLC Assay). Details: not given.
T1 construct: HIV protease was expressed in E. coli [construct pBRT1 prt⁺; made in house; host or cells: E. coli
Type: biochemical
Excerpt: The procedure is based on the capacity of the test compound to inhibit enzymatic cleavage by HIV protease of a decapeptide (the substrate) having an amino acid sequence which includes a known HIV protease cleavage site of a HIV polyprotein; see H.G. Krausslich et al., Proc. Natl. Acad. Sci. USA, 86, 807 (1989). Details of this assay together with the results obtained for exemplified compounds of formula 1 are described in the examples hereinafter.
Recombinant HIV Protease HPLC Assay:
HIV protease was expressed in E. coli [construct pBRT1 prt⁺, see W.G. Farmerie et al., Science, 236, 305 (1987)], according to the following protocol: Unless stated otherwise, all solutions are aqueous solutions.
E. coli cells containing the pBRT1 prt⁺ plasmid were used to inoculate a seed culture media composed of Luria-Bertani Broth containing 100µg/mL of ampicillin. Flasks were incubated at 37° under agitation for 17 h. Production flasks containing sterile M9 broth, supplemented with 100µg/ml of ampicillin, were inoculated at a level of 1% (v/v) using the seed culture described above. Total volume in each production flask was 500 mL in a 2 L Erlenmeyer flask. Flasks were incubated at 37° under agitation until a cell concentration corresponding to an optical density (λ = […]) of 0.6 was reached (no dilution). This time span was routinely 3-4 h. Flasks were then supplemented with 5mM isopropylthiogalactoside (IPTG, Research Organics, Cleveland, Ohio, USA) and incubation was continued until the cell concentration reached an optical density of 0.2 at 16-fold dilution. Flasks were then supplemented with 1mM phenylmethylsulfonyl fluoride (PMSF) and rapidly chilled to 4°. The bacterial cells were recovered by centrifugation at 4°. The wet pellet was stored at -70°.
All steps below were performed at 4° unless otherwise indicated. Thawed cells were mixed with buffer A [50 mM tris(hydroxymethyl)[…] HCl(Tris-HCl, pH 7.4); 0.6 mM ethylenediaminetetraacetic acid (EDTA); 0.375 M NaCl, 0.2% Nonidet P-40 ® (BDH Chemicals Ltd., Poole, UK); 1mM PMSF], at a ratio of one part cells to nine parts buffer A. Diatomaceous earth (Celite 545 ® , John Manville, Lompoc, CA, USA) was added at a ratio of two parts to one part of wet cell weight. The resulting slurry was homogenized at high speed (ca. 20,000 rpm) on a Waring ® industrial blender for 8 x 15 sec. pulses. Cell debris/Celite ® was collected by centrifugation and the resulting pellet was extracted with 4.5 parts of buffer A to one part wet solids using the homogenization procedure described above. Supernatants from both homogenization steps were combined and soluble protein was precipitated by the addition of solid (NH₄)₂SO₄ to yield a final concentration of 75% saturation. This mixture was agitated for 60 min and the precipitate was recovered by centrifugation. The resulting pellet was suspended in buffer B [50mM Tris-HCl, pH 8; 30 mM NaCl; 1 mM DL-dithiothreitol(DTT); 1 mM EDTA; 1 mM PMSF; 10% glycerol], and dialyzed for 18h against the same buffer.
An aliquot of the dialyzed extract containing 150 mg of the protein was loaded onto a Sephadex A25 ® anion exchange column. (Pharmacia, Uppsala, Sweden) with bed dimensions of 70 cm length and 2.5 cm diameter. The sample was eluted isocratically with buffer B at a linear flow rate of 10 cm/h. Fractions containing HIV protease activity (see below for assay description) were combined, and soluble protein was precipitated by the addition of saturated aqueous (NH₄)₂SO₄ to yield a total (NH₄)₂SO₄ concentration of 85% saturation. Precipitated protein was removed by centrifugation and the resulting pellet was dissolved in buffer C [50 mM 2-(4-morpholino)ethanesulfonic acid (MES), pH 5.5; 150 mM NaCl; 1 mM DTT; 1 mM EDTA; 10% glycerol). This preparation was dialyzed for 18h against buffer C, and then frozen at -70°. All crude extracts were purified by chromatography in aliquots containing 150 mg of protein in the same manner as described above. […]

Row | Molecule | IC50 [nM]
1 | CC(C)(C)OC(=O)NC(CC1CCCCC1)C(O)CC(=O)NC(CCC(=O)O)C(=S)NCCCc1ccccc1 (stereo not drawn) [Example 31, Boc-ACHPA-GluΨ[CSNH]-NHCH₂CH₂CH₂Ph] | 380
2 | CCC(CC)C(=O)NC(CC1CCCCC1)C(O)CC(=O)NC(CCC(=O)O)C(=O)NCCc1ccccc1 (stereo not drawn) [Example 6, (C₂H₅)₂CHC(O)-ACHPA-Glu-NHCH₂CH₂Ph] | 93
3 | COC(=O)CCC(NC(=O)CC(O)C(CC1CCCCC1)NC(=O)OC(C)(C)C)C(=O)NCCCc1ccccc1 (stereo not drawn) [Example 5, Boc-ACHPA-Glu(OMe)-NHCH₂CH₂CH₂Ph] | 110
4 | CC(C)(C)OC(=O)NC(C(O)CC(=O)NC(CCC(=O)O)C(=O)NCCCc1ccccc1)C(O)C1CCCCC1 (stereo not drawn) [Example 33, Boc-HACHPA-Glu-NHCH₂CH₂CH₂Ph] | 7.7
5 | O=C(O)CCC(NC(=O)CC(O)C(CC1CCCCC1)NC(=O)C1CCCCC1)C(=O)NCCc1ccccc1 (stereo not drawn) [Example 12, (Cyclohexylcarbonyl)-ACHPA-Glu-NHCH₂CH₂Ph] | 130
6 | CC(C)C[C@H](NC[C@H](Cc1ccccc1)NC(=O)OC(C)(C)C)C(=O)N[C@@H](CCC(=O)O)C(=O)NCCCc1ccccc1 [Example 1, Boc-PheΨ[CH₂NH]Leu-Glu-NHCH₂CH₂CH₂Ph] | 36
7 | CC(C)(C)OC(=O)NC(CC1CC1)C(O)CC(=O)NC(CCC(=O)O)C(=O)NCCCc1ccccc1 (stereo not drawn) [Example 18, Boc-ACPPA-Glu-NHCH₂CH₂CH₂Ph] | 180
8 | CC(C)(C)NC(=O)NC(CC1CCCCC1)C(O)CC(=O)NC(CCC(=O)O)C(=O)NCCCc1ccccc1 (stereo not drawn) [Example 26, (CH₃)₃CNHCO-ACHPA-Glu-NHCH₂CH₂CH₂Ph] | 120
9 | CC(C)(C)OC(=O)NC(CC1CCCCC1)C(O)CC(=O)NC(CCC(=O)O)C(=O)OCCCc1ccccc1 (stereo not drawn) [Example 25, Boc-ACHPA-Glu-OCH₂CH₂CH₂Ph] | 85
10 | CSc1ccc(CCNC(=O)C(CCC(=O)O)NC(=O)CC(O)C(CC2CCCCC2)NC(=O)OC(C)(C)C)cc1 (stereo not drawn) [Example 22, Boc-ACHPA-Glu-NHCH₂CH₂-(4MeS-Ph)] | 18
11 | CCCCCCCCNC(=O)C(CCC(=O)O)NC(=O)CC(O)C(CC1CCCCC1)NC(=O)OC(C)(C)C (stereo not drawn) [Example 13, Boc-ACHPA-Glu-NH(CH₂)₇CH₃] | 40

Same assay, conditions: read-out: IC₅₀; recombinant HIV protease HPLC assay; values in parenthesis in text

Row | Molecule | IC50 [nM]
12 | CC(C)(C)OC(=O)N[C@@H](CC1CCCCC1)[C@@H](O)CC(=O)N[C@@H](CCC(=O)O)C(=O)NCCc1ccc(Cl)cc1 [Boc-ACHPA-Glu-NHCH₂CH₂-(4-Cl-Ph)] | 12
13 | CC(C)(C)OC(=O)N[C@@H](CC1CCCCC1)[C@@H](O)CC(=O)N[C@@H](CCC(=O)O)C(=O)NCCOc1ccccc1Cl [Boc-ACHPA-Glu-NHCH₂CH₂O-(2Cl-Ph)] | 6.6
14 | CC(C)(C)OC(=O)N[C@@H](CC1CCCCC1)[C@@H](O)CC(=O)N[C@@H](CCC(=O)O)C(=O)NCCCc1ccc(F)cc1 [Boc-ACHPA-Glu-NHCH₂CH₂CH₂-(4F-Ph)] | 5.6
15 | COC(=O)CC[C@H](NC(=O)C[C@H](O)[C@H](CC1CCCCC1)NC(=O)OC(C)(C)C)C(=O)NCCOc1ccccc1Cl [Boc-ACHPA-Glu(OMe)-NHCH₂CH₂O-(2Cl-Ph)] | 140
16 | COC(=O)CC[C@H](NC(=O)C[C@H](O)[C@H](CC1CCCCC1)NC(=O)OC(C)(C)C)C(=O)NCCCc1ccc(F)cc1 [Boc-ACHPA-Glu(OMe)-NHCH₂CH₂CH₂-(4F-Ph)] | 83

Same assay, conditions: recombinant HIV protease HPLC assay; values in parenthesis in text; read-out: IC₅₀

Row | IC50 [nM] | Molecule
17 | 14 | CC(C)(C)OC(=O)N[C@@H](CC1CCCCC1)[C@@H](O)CCC(=O)N[C@@H](CCC(=O)O)C(=O)NCCCc1ccccc1 [Boc-ChaΨ[CH(OH)CH₂]Gly-Glu-NHCH₂CH₂CH₂Ph]
18 | 25 | CC(C)(C)OC(=O)N[C@@H](CC1CCCCC1)[C@@H](O)CC(=O)N[C@@H](CCC(=O)O)C(=O)NCCCc1ccco1 [Boc-ACHPA-Glu-NHCH₂CH₂CH₂-(2-furyl)]
19 | 260 | COC(=O)CC[C@H](NC(=O)C[C@H](O)[C@H](CC1CCCCC1)NC(=O)OC(C)(C)C)C(=O)NCCOCc1ccccc1 [Boc-ACHPA-Glu(OMe)-NHCH₂CH₂OBzl]
20 | 7.1 | CC(C)(C)OC(=O)NC(CC1CCCCC1)C(O)CC(=O)NC(CCC(=O)O)C(=O)NCCOCc1ccccc1 (stereo not drawn) [Boc-ACHPA-Glu-NHCH₂CH₂OBzl]
21 | 8.6 | CC(C)(C)OC(=O)N[C@@H](CC1CCCCC1)[C@@H](O)CC(=O)N[C@@H](CCC(=O)O)C(=O)NCCOc1ccccc1 [Boc-ACHPA-Glu-NHCH₂CH₂OPh]
22 | 150 | COC(=O)CC[C@H](NC(=O)C[C@H](O)[C@H](CC1CCCCC1)NC(=O)OC(C)C)C(=O)NCCOCc1ccccc1 [Ipoc-ACHPA-Glu(OMe)-NHCH₂CH₂OBzl]
23 | 30 | CC(C)[C@H](NC[C@H](Cc1ccccc1)NC(=O)OC(C)(C)C)C(=O)N[C@@H](CCC(=O)O)C(=O)NCCCc1ccccc1 [Boc-PheΨ[CH₂NH]Val-Glu-NHCH₂CH₂₂CH₂Ph]
24 | 160 | CC(=O)N[C@@H](CC1CCCCC1)[C@@H](O)CC(=O)N[C@@H](CCC(=O)O)C(=O)NCCCc1ccccc1 [CH₃C(O)-ACHPA-Glu-NHCH₂CH₂CH₂Ph]
25 | 16 | CC(C)(C)OC(=O)N[C@H](CN[C@@H](CC1CC1)C(=O)N[C@@H](CCC(=O)O)C(=O)NCCc1ccccc1)Cc1ccccc1 [Boc-PheΨ[CH₂NH]Cpa-Glu-NHCH₂CH₂Ph]
26 | 33 | COc1ccc(CCNC(=O)[C@H](CCC(=O)O)NC(=O)C[C@H](O)[C@H](CC2CCCCC2)NC(=O)OC(C)(C)C)cc1 [Boc-ACHPA-Glu-NHCH₂CH₂-(4-MeO-Ph)]
27 | 33 | CC(C)(C)OC(=O)N[C@@H](CC1CCCCC1)[C@@H](O)CC(=O)N[C@@H](CCC(=O)O)C(=O)NCCCc1cccs1 [Boc-ACHPA-Glu-NHCH₂CH₂CH₂-(2-thienyl)]
28 | 120 | COC(=O)CC[C@H](NC(=O)C[C@H](O)[C@@H](NC(=O)OC(C)(C)C)[C@@H](O)C1CCCCC1)C(=O)NCCCc1ccccc1 [Boc-HACHPA-Glu(OMe)-NHCH₂CH₂CH₂Ph]
29 | 12 | CCCC[C@H](NC[C@H](Cc1ccccc1)NC(=O)OC(C)(C)C)C(=O)N[C@@H](CCC(=O)O)C(=O)NCCCc1ccccc1 [Boc-PheΨ[CH₂NH]Nle-Glu-NHCH₂CH₂CH₂Ph]
30 | 600 | COC(=O)CC[C@H](NC(=O)CC[C@H](O)[C@H](CC1CCCCC1)NC(=O)OC(C)(C)C)C(=O)NCCCc1ccccc1 [Boc-ChaΨ[CH(OH)CH₂]Gly-Glu(OMe)-NHCH₂CH₂CH₂Ph]
31 | 91 | COC(=O)CCC(NC(=O)CC(O)C(CC1CCCCC1)NC(=O)OC(C)(C)C)C(=O)NCCc1ccc(SC)cc1 (stereo not drawn) [Boc-ACHPA-Glu(OMe)-NHCH₂CH₂-(4MeS-Ph)]
32 | 6.3 | CC(C)OC(=O)N[C@@H](CC1CCCCC1)[C@@H](O)CC(=O)N[C@@H](CCC(=O)O)C(=O)NCCCc1ccccc1 [Ipoc-ACHPA-Glu-NH-CH₂CH₂CH₂Ph]
33 | 15 | COC(=O)N[C@@H](CC1CCCCC1)[C@@H](O)CC(=O)N[C@@H](CCC(=O)O)C(=O)NCCCc1ccccc1 [Moc-ACHPA-Glu-NHCH₂CH₂CH₂Ph]

Row | Molecule | IC50 [nM]
34 | CC(C[C@H](NC(=O)C[C@H](O)[C@H](CC1CCCCC1)NC(=O)OC(C)(C)C)C(=O)NCCCc1ccccc1)C(=O)O (stereo partly drawn) [Boc-ACHPA-{(S)-NHCH[CH₂CH(CH₃)COOH]}C(O)-NHCH₂CH₂CH₂Ph] | 18
35 | Boc-AHDHA-Glu-NHCH₂CH₂CH₂Ph | 32
36 | Boc(4F-Phe)Ψ[CH₂NH]Cpa-Glu-NHCH₂CH₂-(4F-Ph) | 15
37 | Boc-homoACHPA-Glu-NHCH₂CH₂CH₂Ph | 68
38 | Boc-PheΨ[CH₂NH]Cpa-Glu-NHCH₂CH₂CH₂-(4F-Ph) | 8
39 | Boc-PheΨ[CH₂NH]Cpa-Glu-NHCH₂CH₂-(4F-Ph) | 8.4
